Test results published in article PMC10762078, “Role of UPF1-LIN28A interaction during early differentiation of pluripotent stem cells” (Nature Communications, 2024).
Ends that are not written are not given here.

Legend:
hPSCs (CHA15, H9, Pro2) = test: Long-term culture with CPP-peptides: morphology, spontaneous differentiation, lineage marker RT-qPCR (Supplementary Fig. 6c); assay type: cell-based, human
Method: For CPP-conjugated peptide delivery, HeLa, 293T, and PA-1 cells were incubated with CPP-conjugated peptides or CPP-FITC at 2 μM in DMEM with 10% FBS for 12 h a day before cell harvest. hPSCs were treated with CPP-conjugated peptides at 10 μM in mTeSR Plus Medium, […] The ROCK inhibitor (Tocris Bioscience, Y-27632) treated-hPSCs were dissociated into single cells using Accutase (Merck, SCR005) and differentiated into ectoderm, mesoderm, and endoderm using the STEMdiff Trilineage Differentiation Kit ([…] Technologies, 05230) following the manufacturer’s protocol. Differentiated cells treated with CPP-conjugated peptides were analysed at 0, 3, and 5 days for ectoderm and endoderm, and at 0, 3, and 4 days for mesoderm. […]
cDNA was synthesised using RevertAid Reverse Transcriptase (Thermo Fisher Scientific, EP0441) with synthesised random hexamer (Macrogen) for total RNA or stem-loop primers for miRNA. For RT-qPCR reactions, the SensiFAST SYBR No-ROX kit (Meridian Bioscience) was used according to the manufacturer’s protocol. All data analysis and visualisation were conducted using R 3.6.1 [www.r-project.org] or GraphPad Prism 10. RT primers for miRNA and RT-qPCR primer sequences are provided in Supplementary Data 6. […]
Cell m orphology was visualised by phase contrast m icroscopy. T he red boundary indicated the spontaneously differentiated hPSCs. RT -qPCR was perform ed to m easure the relative levels of each lineage m ark er. […]
5p and m iR-16- 5p was shown as CDF graphs. T he relative level of m RNA was norm alised to that of U6 snRNA in (c, d, and f). K–S tests were used for e and f. Unpaired Student’s t-test was used for c , d, and f . * p < 0.05, ** p < 0.01, *** p < 0.001. Exact p -values were provided in Source data. Data are presented as m ean values ± SEM. All statistical test used were two- sided. T he m inim um num ber of independent biological replicate experim ents was a and e n = 2, b–d and f n = 3. T he experim ents were conducted three tim es, each iteration producing consistent results.

His-LIN28A = target: T1, His-LIN28A (Homo sapiens, UniProt Q9H9Z2); test: SPR analyte-ligand binding screening of eight peptides (P1-P8); conditions: SPR screening at 15 μM, 3 min association, 6 min dissociation
T1 construct: purchased LS-bio LS-G637
T1 sequence (Q9H9Z2 1-209): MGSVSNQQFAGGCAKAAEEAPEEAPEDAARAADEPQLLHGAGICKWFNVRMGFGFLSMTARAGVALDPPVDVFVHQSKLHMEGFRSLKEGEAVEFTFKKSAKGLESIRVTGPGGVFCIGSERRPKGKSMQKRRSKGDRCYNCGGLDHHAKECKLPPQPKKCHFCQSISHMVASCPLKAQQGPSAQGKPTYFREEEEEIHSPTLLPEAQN
Method: For ligand immobilisation, the nitrilotriacetic acid (NTA) surface gold sensor chip (icluebio) was activated with 5 mM NiCl2 (Xantec) at a flow rate of 30 μL/min, following equalisation with 1× HBS-T buffer. His-LIN28A (LS-bio, LS-G637) was used as a ligand protein and was applied to a sensor chip at a flow rate of 10 μL/min for 40 min after dilution in 1× HEPES-buffered saline (HBS-T) buffer at a 1/20 ratio. Approximately 1000 resonance units (RU) were bonded to the sensor chip after ligand immobilisation. RU was measured using iMSPR-ProX (icluebio). An indigenous NTA sensor chip was used as a reference channel.
Analyte-ligand binding screening was performed by tethering the ligand and reference channels in the connected mode. […] After equalisation with 1× HBS-T buffer, the sensor chip was treated with each peptide for 3 min and then for 6 min with 1× HBS-T buffer for peptide dissociation.

CHA15 cells = test: Flow cytometry of SOX1, DLK1 and LHX2 during ectodermal differentiation (Fig. 7b, Supplementary Fig. 7f); assay type: cell-based, human; set-up: unit not given here; conditions: for DLK1 FACS, mean / LHX2 FACS, mean / SOX1 FACS, mean: mean from t test output, scale differs from set1-set3 values
Method: For CPP-conjugated peptide delivery, HeLa, 293T, and PA-1 cells were incubated with CPP-conjugated peptides or CPP-FITC at 2 μM in DMEM with 10% FBS for 12 h a day before cell harvest. hPSCs were treated with CPP-conjugated peptides at 10 μM in mTeSR Plus Medium, and the peptide-containing medium was changed every day over 10 days. The ROCK inhibitor (Tocris Bioscience, Y-27632) treated-hPSCs were dissociated into single cells using Accutase (Merck, SCR005) and differentiated into ectoderm, mesoderm, and endoderm using the STEMdiff Trilineage Differentiation Kit ([…] Technologies, 05230) following the manufacturer’s protocol. Differentiated cells treated with CPP-conjugated peptides were analysed at 0, 3, and 5 days for ectoderm and endoderm, and at 0, 3, and 4 days for mesoderm.
To evaluate the relative cell number expressing the indicated proteins, CHA15 cells with the indicated CPP-conjugated peptide were fixed with BD Cytofix Fixation Buffer (BD Biosciences Pharmingen, 554655) followed by permeabilization with 0.1% BSA/PBS solution supplemented with 10% NGS and 0.3% Triton X-100 for 1 h at 4 °C. After washing, cells were incubated with the primary antibodies (OCT4 1:1000, NANOG 1:1000, DLK1 1:1000, SOX2 1:1000, LHX2 1:1000) and then, secondary antibody, Alexa Fluor 488 (1:1000), was applied. The positive cells were determined using flow cytometry (FACSCanto, BD Pharmingen), and data was analysed using the Flow Jo-v10 software program.

[1] = RT-qPCR, CHA15 cell, group 1, mean of set1-set3, Mean of A = 1
[2] = RT-qPCR, CHA15 cell, group 2, mean of set1-set3, Mean of A = 1
[3] = RT-qPCR, CHA15 cell, group 3, mean of set1-set3, Mean of A = 1
[4] = RT-qPCR, H9 cell, group 1, mean of set1-set3, Mean of A = 1
[5] = RT-qPCR, H9 cell, group 2, mean of set1-set3, Mean of A = 1
[6] = RT-qPCR, Pro2 cell, group 1, mean of set1-set3, Mean of A = 1
[7] = RT-qPCR, Pro2 cell, group 2, mean of set1-set3, Mean of A = 1
[8] = vs. P1, ± SEM, unpaired t test, df=4

“KKKWCRKKKSSADEKRYRALKRTAERELLMNA [CPP-P8, CPP conjugated to P8]” was tested, and the “cell morphology and spontaneous differentiation” value (hPSCs (CHA15, H9, Pro2); hPSCs, over 15 days) was “altered the cell morphology, induced spontaneous differentiation, and regulated the levels of differentiated makers” and the “levels of differentiated markers” value (hPSCs (CHA15, H9, Pro2); hPSCs, proliferation) was “upregulated the levels of differentiated markers”.
In the case of KKKWCRKKKSSADEKRYRALKRTAERELLMNA [P8], the “CDH9, Mean of column B” value (hPSCs (CHA15, H9, Pro2); [1]) is reported as 3.237, the “DLK1, Mean” value (hPSCs (CHA15, H9, Pro2); [1]) is reported as 13.42 and the “DMBX1, Mean” value (hPSCs (CHA15, H9, Pro2); [1]) is reported as 7.311. For the same substance, the “RAX, Mean” value (hPSCs (CHA15, H9, Pro2); [1]) was 3.757, the “DLK1, Mean” value (hPSCs (CHA15, H9, Pro2); [2]) was 23.82 and the “LHX2, Mean” value (hPSCs (CHA15, H9, Pro2); [2]) was 41.74. For the same substance, the “POU5F1, Mean of column B” value (hPSCs (CHA15, H9, Pro2); [2]) was 0.6246, the “RAX, Mean” value (hPSCs (CHA15, H9, Pro2); [2]) was 18.83 and the “CDH9, Mean of column B” value (hPSCs (CHA15, H9, Pro2); [3]) was 2.791. The “LHX2, Mean” value (hPSCs (CHA15, H9, Pro2); [3]) was 5.887, the “POU5F1, Mean of column B” value (hPSCs (CHA15, H9, Pro2); [3]) was 0.7547 and the “RAX, Mean” value (hPSCs (CHA15, H9, Pro2); [3]) was 2.315. For the same substance, the “DLK1, Mean” value (hPSCs (CHA15, H9, Pro2); [4]) was 3.511, the “DMBX1, Mean” value (hPSCs (CHA15, H9, Pro2); [4]) was 5.531 and the “LHX2, Mean” value (hPSCs (CHA15, H9, Pro2); [4]) was 2.919. For the same substance, the “PAX6, Mean of column B” value (hPSCs (CHA15, H9, Pro2); [4]) was 3.972, the “DLK1, Mean” value (hPSCs (CHA15, H9, Pro2); [5]) was 2.588 and the “LHX2, Mean” value (hPSCs (CHA15, H9, Pro2); [5]) was 115.8. For the same substance, the “NANOG, Mean” value (hPSCs (CHA15, H9, Pro2); [5]) was 0.1136, the “TBX6, Mean of column B” value (hPSCs (CHA15, H9, Pro2); [5]) was 22.31 and the “DLK1, Mean” value (hPSCs (CHA15, H9, Pro2); [6]) was 6.526. For the same substance, the “LHX2, Mean” value (hPSCs (CHA15, H9, Pro2); [6]) was 0.3053, the “POU5F1, Mean of column B” value (hPSCs (CHA15, H9, Pro2); [6]) was 0.5752 and the “RAX, Mean” value (hPSCs (CHA15, H9, Pro2); [6]) was 3.096. The “DLK1, Mean” value (hPSCs (CHA15, H9, Pro2); [7]) was 9.273, the “LHX2, Mean” value (hPSCs (CHA15, H9, Pro2); [7]) was 16.93 and the “NANOG, Mean” value (hPSCs (CHA15, H9, Pro2); [7]) was 0.2569. The “POU5F1, Mean of column B” value (hPSCs (CHA15, H9, Pro2); [7]) was 0.08931, the “binding affinity vs others” value (His-LIN28A) was “significantly” and the “DLK1 FACS, mean” value (CHA15 cells) was 8315. The “LHX2 FACS, mean” value (CHA15 cells) was 9545, the “SOX1 FACS, mean” value (CHA15 cells) was 5506 and the “DLK1 FACS, difference between means ± SEM” value (CHA15 cells; [8]) was 1682 ± 236.3. The “LHX2 FACS, difference between means ± SEM” value (CHA15 cells; [8]) was 3433 ± 333.3 and the “SOX1 FACS, difference between means ± SEM” value (CHA15 cells; [8]) was -2997 ± 246.0.
For “N-QKLDQKELQLEPM-C [P1, reference compound]”, the “DLK1 FACS, mean” value (CHA15 cells) was 6634, the “LHX2 FACS, mean” value (CHA15 cells) was 6112 and the “SOX1 FACS, mean” value (CHA15 cells) was 8503.
